# Peptide text beside a SMILES is read from it.
# Test system: Mtb strain H37Rv ATCC 27294
# Settings: 24 h
row,Structure (SMILES),MABA MIC [µM]
1,"CC(C)[C@H](NC(=O)CN)C(=O)N1CCC[C@H]1C(=O)NCC(=O)O [GVPG, glycine-valine-proline-glycine] (H-GVPG-OH)",200
2,N=C(N)NCCC[C@H](NC(=O)[C@@H]1CCCN1)C(=O)NCC(=O)O [PRG] (H-Pro-Arg-Gly-OH),>800
3,N=C(N)NCCC[C@H](NC(=O)[C@@H]1CCCN1)C(=O)N1CCC[C@H]1C(=O)O [PRP] (H-Pro-Arg-Pro-OH),>800
4,CC(C)[C@H](NC(=O)[C@@H](NC(=O)[C@@H]1CCCN1)[C@@H](C)O)C(=O)O [PTV] (H-Pro-Thr-Val-OH),>800
5,C[C@@H](O)[C@H](NC(=O)[C@@H](N)CCC(N)=O)C(=O)N[C@@H](CCC(N)=O)C(=O)O [QTQ] (H-Gln-Thr-Gln-OH),>800
6,"N=C(N)NCCC[C@H](NC(=O)[C@@H]1CCCN1C(=O)[C@@H](N)CCCNC(=N)N)C(=O)O [RPR, arginine-proline-arginine] (H-Arg-Pro-Arg-OH)",200
7,N[C@@H](CO)C(=O)NCC(=O)N1CCC[C@H]1C(=O)O [SGP] (H-Ser-Gly-Pro-OH),>800
8,N=C(N)NCCC[C@H](NC(=O)[C@@H]1CCCN1C(=O)[C@@H](N)CO)C(=O)O [SPR] (H-Ser-Pro-Arg-OH),>800
9,N=C(N)NCCC[C@H](NC(=O)[C@@H](N)CO)C(=O)N1CCC[C@H]1C(=O)O [SRP] (H-Ser-Arg-Pro-OH),>800

# Reference: PMC5569447 (Iranian Journal of Basic Medical Sciences, 2017)
